Results reported in patent publication US20200069592A1, “HSP90 INHIBITOR ORAL FORMULATIONS AND RELATED METHODS” (Samus Therapeutics, Inc., priority 2017, published 2020).

How the values were obtained:
[1] = Solubility of the 2HCl salt in dosing vehicle (Example 6); format: physicochemical; conditions: SyrSpend SF Solution (dosing vehicle), aqueous with cosolvent or surfactant or cyclodextrin; pH ~2.5
Source text: Dose levels of Compound 2 were based on the free base, not the salt. […] Dosage forms of Compound 2 2HCl in ORA-Plus® and in SyrSpend® SF Cherry appeared to be suspension instead of clear solutions. Final physical appearance matched that of the vehicle used. Due to opaque properties of vehicles, full solubility could not be confirmed. However, resultant dosing material appeared homogenous. Dosage forms of Compound 2 2HCl in ORA-Plus® and in SyrSpend® SF Cherry were made fresh immediately prior to use.

[2] = Plasma pharmacokinetics after single oral dose in ORA-Plus or SyrSpend SF (Example 6), LC-MS/MS; format: in vivo, Sprague Dawley rats; conditions: for AUC % Extrap / Cl_F / Vz_F / AUC(0-inf) / AUC(0-t) / Cmax / Tmax / half-life: rat plasma; for % AUC0-last test vs reference: rats, ratio of group averages; for AUC(0-inf) / AUC(0-t) / Cmax / Tmax / half-life: female, rat, plasma, po
[3] = Particle size distribution (Cilas 1180) of as-received and jet milled API (Example 8); format: physicochemical
Method: Compound 2 API ‘as-received’ (Lots #2064-118-8, #2064-146-9, and # BPR-WS 1828-194D(2HCl)—B1-19) were analyzed for PSD on a Cilas 1180 particle size analyzer. Subsequently jet milled API batches B # L0441-20-JM51mmP1, B # L0441-20-JM51mmP2, B # L0441-20-JM51mmP3, and B # L0441-84-JM146mmP1 were also analyzed for PSD Approximately 50 mg Compound 2-2HCl was dispersed into 40 mL 0.2% (w/w) span 80 in n-hexanes (dispersant) and allowed to mix for 60 minutes. API was kept suspended in dispersant via stirring and sonication during test.
A jet milling study was performed on a batch of Compound 2 2HCl with jet mill Fluid Energy Asset #00170 outfitted with a 51 mm collection loop. Batches B # L0441-29-JM51mmP1, B # L0441-29-JM51mmP2, and B # L0441-29-JM51mmP3 were created from ˜10 g of Compound 2 lot # BPR-WS1828-194D(2HCl)-B1-19 subjected to 3 passes. Jet mill settings for grinder nozzle and pusher nozzle as follows: Pass 1 grinder nozzle=60 psi & pusher nozzle=80 psi, Pass 2 and 3 grinder nozzle=50 psi & pusher nozzle=70 psi.
After successfully jet milling on the R&D scale, B # L0441-84-JM146mmP1 was created from Compound 2-2HCl lot # BPR-17-87-B1-21d which was processed with a single pass to confirm GMP scale up conditions in the R&D laboratory by passing 85 g through the GMP jet mill Jet-O-Mizer Asset #01 16 Model 0101 outfitted with 146 mm collection loop using a standard nylon 4×48-inch collection sock inside a PTFE 4×48-inch sock to minimize fines loss. The pressure settings for the grinder and pusher nozzle were: Grinder nozzle 60 psi, Pusher nozzle 70 psi.

[4] = G3: 2HCl, 24 mg/kg single oral dose, ORA-plus
[5] = G4: 2HCl, 48 mg/kg single oral dose, ORA-plus
[6] = G9: 2HCl, 24 mg/kg single oral dose, SyrSpend
[7] = G10: 2HCl, 48 mg/kg single oral dose, SyrSpend, n = 2
[8] = G11: 2HCl, 60 mg/kg single oral dose, SyrSpend, n = 4
[9] = Sprague Dawley, 24 mg/kg, G3: 2HCl, 24 mg/kg single oral dose, ORA-plus
[10] = Sprague Dawley, 24 mg/kg, G9: 2HCl, 24 mg/kg single oral dose, SyrSpend
[11] = Sprague-Dawley, 24 mg/kg, G9: 2HCl, 24 mg/kg single oral dose, SyrSpend
[12] = Sprague-Dawley, 48 mg/kg, G4: 2HCl, 48 mg/kg single oral dose, ORA-plus
[13] = Sprague-Dawley, 48 mg/kg, G10: 2HCl, 48 mg/kg single oral dose, SyrSpend
[14] = Sprague-Dawley, 60 mg/kg, G11: 2HCl, 60 mg/kg single oral dose, SyrSpend
[15] = Lot 2064-118-8, API as received
[16] = Lot 2064-146-9, API as received
[17] = Lot BPR-17-87-B1-21d, API as received
[18] = Lot BPR-17-87-B1-21d, jet milled batch B#L0441-84-JM146mmP1
[19] = Lot BPR-WS1828-194D(2HCL)-B1-19, API as received
[20] = Lot BPR-WS1828-194D(2HCL)-B1-19, jet milled batch B#L0441-20-JM51mmP1
[21] = Lot BPR-WS1828-194D(2HCL)-B1-19, jet milled batch B#L0441-20-JM51mmP2
[22] = Lot BPR-WS1828-194D(2HCL)-B1-19, jet milled batch B#L0441-20-JM51mmP3

## CC(C)(C)CNCCn1c(Sc2cc3c(cc2I)OCO3)nc2c(N)ncnc21 [Compound 2 2HCl]
[1]
  solubility: 20 to 25 mg/mL
[2]; [4]
  AUC % Extrap: 4.00 ± 1.84%
  Cl_F: 357.3 ± 155 mL/min/kg
  Vz_F: 81.00 ± 80.22 L/kg
[2]; [5]
  AUC % Extrap: 1.32 ± 2.64%
  Cl_F: 154 ± 76.5 mL/min/kg
  Vz_F: 28.42 ± 13.10 L/kg
[2]; [6]
  AUC % Extrap: 4.72 ± 4.49%
  Cl_F: 405.8 ± 204.3 mL/min/kg
  Vz_F: 129.96 ± 81.45 L/kg
[2]; [7]
  AUC % Extrap: 2.05 ± 0.35 %
  Cl_F: 124 ± 23 mL/min/kg
  Vz_F: 45.95 ± 8.11 L/kg
[2]; [8]
  AUC % Extrap: 0.68 ± 0.89 %
  Cl_F: 219.2 ± 72.5 mL/min/kg
  Vz_F: 55.47 ± 25.73 L/kg
[2]; Group 3 (24 mg/kg 2HCl ORA-plus) vs Group 9 (24 mg/kg 2HCl SyrSpend)
  % AUC0-last test vs reference: 109.55%
[2]; Group 4 (48 mg/kg 2HCl ORA-plus) vs Group 10 (48 mg/kg 2HCl SyrSpend)
  % AUC0-last test vs reference: 73.71%
[2]; Group 9 (24 mg/kg 2HCl SyrSpend) vs Group 10 (48 mg/kg 2HCl SyrSpend)
  % AUC0-last test vs reference: 13.71%
[2]; Group 9 (24 mg/kg 2HCl SyrSpend) vs Group 11 (60 mg/kg 2HCl SyrSpend)
  % AUC0-last test vs reference: 24.05%
[2]; Group 10 (48 mg/kg 2HCl SyrSpend) vs Group 11 (60 mg/kg 2HCl SyrSpend)
  % AUC0-last test vs reference: 175.45%
[2]; [9]
  AUC(0-inf): 1340 ± 678 ng·h/mL
  AUC(0-t): 1290 ± 666 ng·h/mL
  Cmax: 407 ± 278 ng/mL
  Tmax: 1.6 ± 0.55 h
  half-life: 2.34 ± 1.76 h
[2]; [10]
  AUC(0-inf): 1240 ± 717 ng·h/mL
  AUC(0-t): 1180 ± 688 ng·h/mL
[2]; Sprague Dawley, 48 mg/kg, G10: 2HCl, 48 mg/kg single oral dose, SyrSpend
  AUC(0-t): 8580 ± 2220 ng·h/mL
[2]; Sprague Dawley, 48 mg/kg, G10: 2HCl, 48 mg/kg single oral dose, SyrSpend, n = 2
  AUC(0-inf): 6560 ± 1220 ng·h/mL
[2]; Sprague Dawley, 60 mg/kg, G11: 2HCl, 60 mg/kg single oral dose, SyrSpend
  AUC(0-t): 4890 ± 1310 ng·h/mL
[2]; Sprague Dawley, 60 mg/kg, G11: 2HCl, 60 mg/kg single oral dose, SyrSpend, n = 4
  AUC(0-inf): 4950 ± 1780 ng·h/mL
[2]; [11]
  Cmax: 270 ± 184 ng/mL
  Tmax: 1.2 ± 0.45 h
  half-life: 3.41 ± 1.24 h
[2]; [12]
  AUC(0-inf): 6370 ± 3170 ng·h/mL
  AUC(0-t): 6320 ± 3210 ng·h/mL
  Cmax: 1120 ± 429 ng/mL
  Tmax: 2.2 ± 1.1 h
  half-life: 2.18 ± 0.35 h
[2]; [13]
  Cmax: 1140 ± 311 ng/mL
  Tmax: 4 ± 1.41 h
[2]; Sprague-Dawley, 48 mg/kg, G10: 2HCl, 48 mg/kg single oral dose, SyrSpend, n = 2
  half-life: 4.28 ± 0.04 h
[2]; [14]
  Cmax: 825 ± 247 ng/mL
  Tmax: 2.6 ± 1.34 h
[2]; Sprague-Dawley, 60 mg/kg, G11: 2HCl, 60 mg/kg single oral dose, SyrSpend, n = 4
  half-life: 2.84 ± 0.83 h
[3]; [15]
  Particle size distribution d10: 12.0 μm
  Particle size distribution d50: 42.8 μm
  Particle size distribution d90: 131.6 μm
[3]; [16]
  Particle size distribution d10: 8.4 μm
  Particle size distribution d50: 23.0 μm
  Particle size distribution d90: 57.7 μm
[3]; [17]
  Particle size distribution d10: 11.6 μm
  Particle size distribution d50: 35.7 μm
  Particle size distribution d90: 98.3 μm
[3]; [18]
  Particle size distribution d10: 1.9 μm
  Particle size distribution d50: 3.9 μm
  Particle size distribution d90: 8.0 μm
[3]; [19]
  Particle size distribution d10: 11.0 μm
  Particle size distribution d50: 33.1 μm
  Particle size distribution d90: 83.0 μm
[3]; [20]
  Particle size distribution d10: 3.1 μm
  Particle size distribution d50: 7.9 μm
  Particle size distribution d90: 17.3 μm
[3]; [21]
  Particle size distribution d10: 2.3 μm
  Particle size distribution d50: 5.6 μm
  Particle size distribution d90: 11.7 μm
[3]; [22]
  Particle size distribution d10: 2.0 μm
  Particle size distribution d50: 4.8 μm
  Particle size distribution d90: 10.1 μm
